Reference: PMC9552247 (Addiction biology, 2022)

Target: human DAT (CHO-DAT) (Homo sapiens, UniProt Q01959)
Conditions: labelled compound, 60 nM, pH 7.4, 37°C

Sequence of human DAT (CHO-DAT) (Q01959 whole entry): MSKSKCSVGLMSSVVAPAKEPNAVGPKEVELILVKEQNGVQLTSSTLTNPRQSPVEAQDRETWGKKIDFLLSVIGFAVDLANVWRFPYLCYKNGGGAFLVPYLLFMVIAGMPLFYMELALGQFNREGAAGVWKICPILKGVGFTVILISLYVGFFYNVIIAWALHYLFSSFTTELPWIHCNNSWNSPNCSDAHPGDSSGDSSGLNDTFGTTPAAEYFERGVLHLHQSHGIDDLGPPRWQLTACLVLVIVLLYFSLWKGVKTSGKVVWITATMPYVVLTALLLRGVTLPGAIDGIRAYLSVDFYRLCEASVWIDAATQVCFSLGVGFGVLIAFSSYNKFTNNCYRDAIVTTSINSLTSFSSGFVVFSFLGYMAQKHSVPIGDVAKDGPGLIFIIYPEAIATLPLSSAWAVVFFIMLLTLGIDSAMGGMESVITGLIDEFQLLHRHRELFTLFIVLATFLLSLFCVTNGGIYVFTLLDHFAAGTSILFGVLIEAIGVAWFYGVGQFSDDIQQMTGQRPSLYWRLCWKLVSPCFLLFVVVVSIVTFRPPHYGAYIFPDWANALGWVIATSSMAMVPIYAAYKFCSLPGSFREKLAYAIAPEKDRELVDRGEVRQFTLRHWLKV

NCCc1ccc(O)c(O)c1 [dopamine]
[3H]-dopamine uptake in CHO-DAT cells: cells expressing the DA transporter (CHO-DAT) using tritiated dopamine
